Patent US8058442B2 (Technion Research and Development Foundation Ltd., priority 2002, dated 2011)
Read-outs that look alike come from different tables or passages of the source.

What was measured:
[1] = n-octanol/water shake-flask distribution coefficient; type: physicochemical
Source text: The partition coefficient (Pow) or the distribution ratio (Dow) between octanol and water are most commonly used measures of the hydrophobicity of compounds. Dow can depend on the concentration of solute, but at reasonably low concentrations. If the solute is in the same form in both phases, Dow becomes constant and is called the partition coefficient Pow. Pow plays an important role in determining the physico-chemical properties and the behaviour of numerous organic compounds in biological systems. Pow is applied to quantitative structure-activity relationship studies, and as a measure of hydrophobicity. All the partition measurements are carried out using a 1-octanol/water shake-flask procedure (Leo, A J. 1991, “Hydrophobic parameter: measurement and calculation”, Methods Enzymol. 202:544-91) or simply by the elution time of solute from HPLC column. Thereafter, the transport properties of the iron-complexes are examined in the water/lipid membrane system (liposomes), which mimics biomembranes much better than the octanol/water system (Breuer et al, 1995).
1-Octanol (Riedel-deHaën, synthesis grade (250-270 nm abs.<0.06) and glass distilled deionized water were used as the partitioning solutions. A Hewlett-Packard 8450A diode array spectrophotometer was used for the quantitative determination of the tested com-pounds in the standard solutions and in the partitioned solutions. The aqueous phase stock solutions were shaken with an excess of 1-octanol to presaturate them and were then allow-ed to stand overnight before use. The 1-octanol stock solutions were also presaturated with 10 mM NaOH and allowed to settle overnight. The experiments were performed in 10-ml stoppered centrifuge tubes. The tubes were inverted gently for 5 min and then, to assure complete phase separation, they were centrifuged for 20 min at 1,000-2,000 g. The aqueous and organic phases were removed separately and analyzed by UV spectrophotometry.
Lipophilicity plays an important role in drug absorption and distribution. The logarithm of the n-octanol/water distribution coefficients (logD) is the most commonly used measure of the lipophilicity of a drug candidate. Here we used an n-octanol/water shake-flask procedure to determine logD. […] In acidic and basic solution, all the test compounds have low log D values, which refer to a good hydrophilicity. This can be explained by the formation of oxinium chloride (in acid) and sodium oxinate (in base) derivatives.

[2] = tested on: PC12 cells; test: Neuroprotection of PC12 cells against serum-deprivation induced apoptosis (MTT test); type: cell-based, rat; conditions: for number of survival cells (cell viability, % of cells cultured with serum): 0.1 μM chelator, serum-free medium, 24 h, serum-free control 38%
Procedure: Rat PC12 cells, originated from rat pheochromocytoma, were grown at 37° C., in a humid 5% CO2, 95% air environment, in a growth medium containing Dulbecco's modified Eagle's Medium (DMEM, GIBCO, BRL) supplemented with glucose (1 mg/1 ml), 5% fetal calf serum, 10% horse serum, and 1% of a mixture of streptomycin/penicillin. On confluence, the culture was removed and the cells were detached by vigorous washing, centrifuged at 200 g for 5 min and resuspended in DMEM with full serum content. 0.5×10^4 cells/well were placed in microtiter plates (96 wells) precoated with collagen (10 μg/cm^2 were allowed to attach for 24 h before treatment).
Twenty-four hours after attachment of the PC12 cells as described in (g), the medium was replaced with DMEM containing 0.1% BSA. The test compounds were added to the cells after 1 h of incubation. After 24 h incubation, the cells were subjected to MTT test as previously described (Gassen et al., 1998). The absorption was determined in a Perkin-Elmer Dual Wavelength Eliza-Reader at λ=570/650 nm after automatic subtraction of background readings. The results are expressed as percentage of the untreated control.
PC12 cells were grown in serum-free medium alone or in serum-free medium with different concentration of the chelators VK-28, M32, HLA20 and Rasagiline. After 24 h incubation, the cells were subjected to MTT test.
Cell viability was expressed as a percentage of cells cultured in medium supplemented with serum, which served as the control group and was designated as 100%. […] Experimental data are shown as mean±SD (r=6).

C#CCN1CCN(Cc2ccc(O)c3ncccc23)CC1 [HLA20, 5-(4-propargylpiperazin-1-ylmethyl)-8-hydroxyquinoline]
logD ([1]; H2O, read-out: LogD in H2O): 1.57
D in 0.01N HCl ([1]; distribution ratio D = Corg/Caq, 0.01N HCl): 0.025
D in 0.01N NaOH ([1]; distribution ratio D = Corg/Caq, 0.01N NaOH): 0.70
D in H2O ([1]; distribution ratio D = Corg/Caq, H2O): 37.02
logD ([1]; pH 2, 0.01N HCl, read-out: LogD in 0.01N HCl): -1.6
logD ([1]; pH 12, 0.01N NaOH, read-out: LogD in 0.01N NaOH): -0.16
number of survival cells (cell viability, % of cells cultured with serum) [2]: 65%
change in the protection against PC12 cell death induced by serum withdrawal ([2]; 1 or 10 μM, compared with 0.1 μM): no significant change in the protection

OCCN1CCN(Cc2ccc(O)c3ncccc23)CC1 [VK-28, 5-[4-(2-hydroxyethyl)piperazin-1-ylmethyl]-8-hydroxyquinoline, reference compound]
number of survival cells (cell viability, % of cells cultured with serum) [2]: 80%
inhibitory activity against PC12 apoptosis induced by serum withdrawal ([2]; 1 μM): good inhibitory activity
PC12 cell death in serum-free medium (toxicity) ([2]; 10 μM): about 75%
